{
  "source": "patent US20260137711A1",
  "about": "“COMBINATION THERAPY FOR CANCER” (NATIONAL UNIVERSITY OF IRELAND, GALWAY, priority 2022, published 2026)",
  "tested_on": "MCF10A cells",
  "assay": "Flow cytometry of cell cycle distribution and DNA synthesis (EdU/DAPI)",
  "type": "cell-based, human",
  "details": "for cell cycle distribution: 24 hours",
  "protocol": "(c) A typical profile obtained by flow cytometry of MCF10A cells labelled with EdU and DAPI that indicates the gating applied in order to determine the percentage of cells with sub-G1 DNA content (sub-G1), G1 cells (G1), replicating early-mid S phase cells (Early-Mid S/EdU+), replicating mid-late S phase cells (Mid-Late S/EdU+), cells with S phase DNA content but not replicating (2n<& <4n/EdU−), and cells either in G2 or mitosis (G2/M).(d-f) MCF10A cells were mock treated or treated with 10 μM XL413, in the presence or absence of increasing concentrations of the CDK8 inhibitor BI-1347, for 24 hours. (d) Cells were labelled with EdU for last 30 minutes and DNA synthesis, DNA content and cell cycle distribution were assessed by flow cytometry and analysed using the gating strategy described in above (FIG. 2c). (e) Distribution of cells in the cell cycle. (f) Fluorescence intensity, proportional to EdU incorporation, in individual S phase cells. Long and short horizontal black lines indicate the median and the interquartile range, respectively, extending from the 25th to the 75th percentile for ˜3,810 cells for each condition. Data is from a single experiment.\nFIG. 3: CDK8 activity is required for efficient DNA synthesis under conditions of limited CDC7 kinase activity (a-c) MCF10A cells were mock treated or treated with 31 nM BI-1347, in the presence or absence of increasing concentrations of the CDC7 inhibitors, XL413 (a-c) and TAK-931 (d-f), for 24 hours. (a and d) Cells were labelled with EdU for last 30 minutes and DNA synthesis, DNA content and cell cycle distribution were assessed by flow cytometry and analysed using the gating strategy described in FIG. 2c.c (b and e) distribution of cells in the cell cycle. (c and f) Fluorescence intensity, proportional to EdU incorporation, in individual S phase cells. Long and short horizontal black lines indicate the median and the interquartile range, respectively, extending from the 25th to the 75th percentile for ˜4,190 cells for each condition. Data is from a single experiment.\nTo analyse the cell cycle and DNA synthesis, nascent DNA was labelled by incubating cells with 10 μM EdU for either 20 or 30 minutes prior to harvest, washing with PBS, and then by resuspension in PBS containing 70% EtOH for 1 hour at −20° C. After a PBS wash, incorporated EdU was labelled by incubating cells in click reaction buffer (PBS containing 10 μM 6-Carboxyfluorescine-TEG-azide, 10 mM Sodium-L-ascorbate, 2 mM Copper-II-Sulphate) for 30 minutes protected from light. Cells were washed in PBS containing 1% BSA, 5% Tween 20 and then DNA stained in PBS containing 1% BSA and 1 μg/ml DAPI. All washes involve: centrifugation at 400×g for 5 minutes, removal of supernatant from pellet, resuspension in the appropriate buffer, recentrifugation and removal of supernatant from the pellet prior to the next step.\nFluorescence intensity data for 6-Carboxyfluorescine (488_530_30 nm) and DAPI (405_450_50 nm) were acquired for 10,000 single cells on a BD FACS Canto II and analysed using FlowJo software. To further analyse fluorescence intensity, proportional to EdU incorporation, for individual cells, gates were applied on DAPI-EdU biparametric dot plots to select for EdU positive S phase cells using FlowJo. According to the required analysis these gates included either all S phase cells, or only early or late S phase cells. Fluorescence intensity (488_530_30) values per cell were exported and plotted as scatter dot plots using GraphPad prism. For comparisons of mean fluorescence intensity of a cell population across three biological repeat experiments, all fluorescence intensity values were normalised to the maximum fluorescence intensity of the untreated control sample of each respective experiment to account for absolute differences in EdU staining. […]",
  "note": "Entries after “also recorded” stand apart in the source; their conditions may differ.",
  "data": [
    {"smiles": "Cl.O=c1[nH]c([C@@H]2CCCN2)nc2c1oc1ccc(Cl)cc12", "note": "[XL413]", "values": [
      {"measurement": "rate of DNA synthesis", "result": "strongly reduced; also recorded: much more profound decrease"},
      {"measurement": "rate of DNA synthesis of S phase cells", "result": "corresponding decrease"},
      {"measurement": "cell cycle distribution", "setting": "10 μM XL413 alone", "result": "accumulation of cells in mid to late S phase"},
      {"measurement": "cell cycle distribution", "setting": "CDC7 inhibitor alone at increasing concentrations, absence of CDK8/CDK19i", "result": "dose-dependent accumulation of mid-late S phase cells"},
      {"measurement": "cell cycle distribution", "setting": "CDC7 inhibitor at increasing concentrations together with the CDK8/CDK19 inhibitor (31 nM BI-1347), all doses tested", "result": "more pronounced accumulation of cells in mid-late S phase"}
    ]}
  ]
}
